# Test results taken from ChEMBL document CHEMBL3727358, “Inhibitors of inducible form of 6-phosphofructose-2-kinase” (2014).
# Key:
# [1] = target: T1, 6-phosphofructo-2-kinase/fructose-2,6-bisphosphatase 3 (Homo sapiens, UniProt Q16875); assay: Inhibition of iPFK2 (unknown origin) assessed as reduction in enzyme-mediated fructose-6-phosphate phosphorylation by measuring ATP consumption incubated for 3 hrs by luciferase-luciferin-coupled chemiluminescence assay
# [2] = target: T1, 6-phosphofructo-2-kinase/fructose-2,6-bisphosphatase 3; assay: Inhibition of iPFK2 (unknown origin) assessed as reduction in enzyme-mediated fructose-6-phosphate phosphorylation by measuring NADH absorbance pre-incubated for 10 mins before ATP/substrate addition followed by incubation for 1 hr by UV-Visible spectrometry based iPFK-2/PPI-PFK coupled enzyme assay
# T1 sequence (Q16875 whole entry): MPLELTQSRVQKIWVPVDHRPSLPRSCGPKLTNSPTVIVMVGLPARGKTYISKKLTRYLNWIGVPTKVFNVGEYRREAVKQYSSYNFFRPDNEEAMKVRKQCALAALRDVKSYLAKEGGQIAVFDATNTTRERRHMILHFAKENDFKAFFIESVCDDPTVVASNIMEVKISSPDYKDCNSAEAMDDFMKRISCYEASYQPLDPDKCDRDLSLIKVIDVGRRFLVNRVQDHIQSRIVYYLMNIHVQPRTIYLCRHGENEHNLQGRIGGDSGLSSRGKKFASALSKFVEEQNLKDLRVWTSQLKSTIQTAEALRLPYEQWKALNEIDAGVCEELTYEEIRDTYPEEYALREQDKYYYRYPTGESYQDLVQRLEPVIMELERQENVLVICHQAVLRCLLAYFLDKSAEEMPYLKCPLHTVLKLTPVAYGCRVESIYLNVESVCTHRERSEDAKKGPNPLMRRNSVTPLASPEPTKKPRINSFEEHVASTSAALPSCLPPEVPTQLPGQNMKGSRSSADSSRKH
Structure (SMILES),IC50 [1] [nM],IC50 [2] [nM]
COc1ccc(-c2cccc(C(C)Nc3cc(-c4ccc5ncsc5c4)nc(C)n3)c2)cn1 (centres undefined),> 1000,500
Cc1ccc(COc2cccc(C(C)Nc3cc(-c4ccc5ncsc5c4)nc(C)n3)c2)cc1 (centres undefined),> 1000,> 1000
Cc1nc(NC(C)c2ccc(F)c(Br)c2)cc(-c2ccc3occ(C)c3c2)n1 (centres undefined),> 1000,500
Cc1nc(NC(C)c2cccc(OCC#N)c2)cc(-c2ccc3ccn(C)c3c2)n1 (centres undefined),500,500
Cc1nc(NC(C)c2cccc(-c3ccsc3)c2)cc(-c2ccc3ncsc3c2)n1 (centres undefined),> 1000,> 1000
Cc1nc(N[C@@H]2CCOc3ccccc32)cc(-c2ccc3ncsc3c2)n1,> 1000,> 1000
Cc1nc(NC(C)c2cccc(-c3ccoc3)c2)cc(-c2ccc3ncsc3c2)n1 (centres undefined),> 1000,> 1000
Cc1cc(-c2cccc(C(C)Nc3cc(-c4ccc5ncsc5c4)nc(C)n3)c2)ccn1 (centres undefined),500,500
Cc1nc(NCc2ccccc2F)cc(-c2ccc3ncsc3c2)n1,500,> 1000
Cc1nc(NC(C)c2cccc(NC=O)c2)cc(-c2ccc3ncsc3c2)n1 (centres undefined),> 1000,> 1000
COc1cccc([C@H](C)Nc2cc(-c3cc4ccccc4o3)nc(C)n2)c1,> 1000,> 1000
Cc1nc(NCC2CCCN(C(=O)C3(C)CC3)C2)cc(-c2ccc3ncsc3c2)n1 (centres undefined),500,> 1000
Cc1nc(NC(C)c2cccc(N)c2)cc(-c2ccc3ncsc3c2)n1 (centres undefined),> 1000,500
Cc1nc(NC(C)c2cccc(-c3ccc(N(C)C)nc3)c2)cc(-c2ccc3ncsc3c2)n1 (centres undefined),500,500
COc1cc(-c2cc(NC(C)c3cccc(O)c3)nc(C)n2)ccc1C (centres undefined),> 1000,500
Cc1nc(NC(C)c2cccc(-c3ccc[nH]3)c2)cc(-c2ccc3ncsc3c2)n1 (centres undefined),> 1000,500
Cc1nc(NCc2cc(Br)ccc2F)cc(-c2ccc3ncsc3c2)n1,> 1000,> 1000
Cc1nc(N[C@@H]2CCCc3ccccc32)cc(-c2ccc(C#N)cc2)n1,> 1000,> 1000
Cc1nc(NC(C)c2cccc(OCC3CCCN(C(=O)OC(C)(C)C)C3)c2)cc(-c2ccc3ncsc3c2)n1 (centres undefined),> 1000,> 1000
Cc1cc(COc2ccc(F)c(C(C)Nc3cc(-c4ccc5ncsc5c4)nc(C)n3)c2)n(C)n1 (centres undefined),> 1000,> 1000
COc1cccc([C@H](C)Nc2cc(-c3ccc4c(c3)CCO4)nc(C)n2)c1,500,500

Structure (SMILES),IC50 [1] [nM],IC50 [2] [nM]
Cc1nc(NC(C)c2cccc([N+](=O)[O-])c2)cc(-c2ccc3ncsc3c2)n1 (centres undefined),500,500
Cc1ccc(OCc2noc(COc3cccc(C(C)Nc4cc(-c5ccc6ncsc6c5)nc(C)n4)c3)n2)cc1 (centres undefined),> 1000,> 1000
Cc1nc(NC(C)c2cccc(-c3cnn(C)c3)c2)cc(-c2ccc(F)c(C)c2)n1 (centres undefined),> 1000,500
Cc1cc(-c2cc(N[C@@H]3CCCc4ccccc43)nc(C)n2)ccn1,> 1000,> 1000
Cc1nc(NC(C)c2ccccc2C)cc(-c2ccc3occ(C)c3c2)n1 (centres undefined),> 1000,> 1000
Cc1nc(NC(C)c2cccc(-c3cnn(C)c3)c2)cc(-c2ccc(Cl)cc2Cl)n1 (centres undefined),500,500
CCc1coc2ccc(-c3cc(N[C@@H](C)c4cccc(Br)c4)nc(C)n3)cc12,> 1000,500
Cc1nc(NC(C)c2cccc(-c3cccc(F)c3)c2)cc(-c2ccc3ncsc3c2)n1 (centres undefined),> 1000,> 1000
Cc1nc(NC(C)c2cccc(OC(C)C(N)=O)c2)cc(-c2ccc3ncsc3c2)n1 (centres undefined),> 1000,500
Cc1nc(NC(C)c2cccc(-c3cnn(C)c3)c2)cc(-c2ccc(C(C)C)cc2)n1 (centres undefined),> 1000,500
Cc1nc(NC(C)c2cccc(NC(N)=O)c2)cc(-c2ccc3ncsc3c2)n1 (centres undefined),> 1000,> 1000
Cc1nc(NC(C)c2cccc(OCC3CCN(C(=O)OC(C)(C)C)CC3)c2)cc(-c2ccc3ncsc3c2)n1 (centres undefined),> 1000,> 1000
Cc1cc(COc2ccc(F)c(CNc3cc(-c4ccc5ncsc5c4)nc(C)n3)c2)n(C)n1,> 1000,> 1000
Cc1nc(N[C@H](C)c2cccc(O)c2)cc(-c2ccc3ncsc3c2)n1,> 1000,> 1000
Cc1nc(N[C@@H]2CCCc3ccccc32)cc(-c2cc3ccccc3s2)n1,> 1000,500
COc1cccc([C@H](C)Nc2cc(-c3cnc4ccn(C)c4c3)nc(C)n2)c1,> 1000,> 1000
Cc1nc(N[C@@H]2CCCc3ccccc32)cc(-c2ccc3cnn(C)c3c2)n1,500,500
CCOC(=O)c1cncc(-c2cccc(C(C)Nc3cc(-c4ccc5ncsc5c4)nc(C)n3)c2)c1 (centres undefined),> 1000,500
Cc1nc(NC(C)c2cccc(NC(=O)c3ccn(C)n3)c2)cc(-c2ccc3ncsc3c2)n1 (centres undefined),> 1000,500
Cc1nc(NCC2CCCN(C(=O)C3CCCC3)C2)cc(-c2ccc3ncsc3c2)n1 (centres undefined),500,> 1000
COc1cccc([C@H](C)Nc2cc(-c3cc4ccccc4n3C)nc(C)n2)c1,500,500
